# Source: US12186283B2, “Bismuth-thiol compositions and methods of use” (Microbion Corporation, priority 2018, dated 2025)
# How the values were obtained:
# S. aureus ATCC 29213 [1] = conditions: control strain ATCC 29213 S. aureus; per CLSI M100-S24 or provided by Microbion; cited from earlier work
# E. coli ATCC 25922 = conditions: control strain ATCC 25922 E. coli; per CLSI M100-S24 or provided by Microbion; cited from earlier work
# [2] = tested on: Burkholderia spp. (B. cepacia complex); experiment: MIC against CF isolates (Example 5); type: cell-based; conditions: Table 4A
# [3] = tested on: vancomycin-intermediate Staphylococcus aureus (VISA); experiment: Broth microdilution MIC (Example 12)
# S. aureus ATCC 29213 [4] = experiment: Broth microdilution MIC, ATCC QC organism (Example 12); type: cell-based, Staphylococcus aureus; conditions: S. aureus ATCC 29213, QC organism
# Description: The in vitro activity of BisEDT and two additional bismuth-thiol investigational agents (MB-2B and MB-6) was determined for isolates of Escherichia coli, Klebsiella pneumoniae, Pseudomonas aeruginosa and Acinetobacter baumannii characterized for extended-spectrum β-lactamases (ESBL) and/or carbapenem resistance. In addition, vancomycin-intermediate Staphylococcus aureus (VISA) were evaluated. The majority of the isolates tested in the current study were multidrug-resistant (MDR) as defined by resistance to at least three different antibiotic classes. Susceptibility to the investigational compounds and relevant comparators was determined by broth microdilution conducted in accordance with guidelines from the Clinical and Laboratory Standards Institute (CLSI; 2,3).
# S. aureus ATCC 29213 [5] = conditions: S. aureus ATCC 29213, QC organism; cited from earlier work
# Klebsiella pneumoniae = experiment: Broth microdilution MIC (Example 12)
# Pseudomonas aeruginosa [6] = conditions: P. aeruginosa ATCC 27853, QC organism; cited from earlier work
# Escherichia coli [7] = conditions: E. coli ATCC 25922, QC organism; cited from earlier work
# Pseudomonas aeruginosa [8] = experiment: Broth microdilution MIC (Example 12)
# Escherichia coli [9] = experiment: Broth microdilution MIC (Example 12)
# Acinetobacter baumannii = experiment: Broth microdilution MIC (Example 12)
# [10] = Staphylococcus aureus NRS 1 (hVISA)
# [11] = Staphylococcus aureus NRS 24 (hVISA)
structure (smiles),measurement,setting,value
NCC[C@H](O)C(=O)N[C@@H]1C[C@H](N)[C@@H](O[C@H]2O[C@H](CN)[C@@H](O)[C@H](O)[C@H]2O)[C@H](O)[C@H]1O[C@H]1O[C@H](CO)[C@@H](O)[C@H](N)[C@H]1O [Amikacin],Expected MIC: acceptable range,S. aureus ATCC 29213 [1],1 to 4 µg/mL
same,Expected MIC: goal,S. aureus ATCC 29213 [1],2 µg/mL
same,Expected MIC: acceptable range,E. coli ATCC 25922,0.5 to 4 µg/mL
same,Expected MIC: goal,E. coli ATCC 25922,1 to 2 µg/mL
same,MIC,"[2]; strain AU197, B. cenocepacia (B cepacia complex)",> 64 µg/mL
same,MIC,"[2]; strain BC5b, B. multivorans (B cepacia complex)",> 64 µg/mL
same,MIC,"[2]; strain BC15, B. cenocepacia (B cepacia complex)",> 64 µg/mL
same,MIC,"[2]; strain BC17, B. cepacia (B cepacia complex)",> 64 µg/mL
CCCCCCCCCC(=O)NC(Cc1c[nH]c2ccccc12)C(=O)NC(CC(N)=O)C(=O)NC(CC(=O)O)C(=O)NC1C(=O)NCC(=O)NC(CCCN)C(=O)NC(CC(=O)O)C(=O)NC(C)C(=O)NC(CC(=O)O)C(=O)NCC(=O)NC(CO)C(=O)NC(C(C)CC(=O)O)C(=O)NC(CC(=O)c2ccccc2N)C(=O)OC1C (centres unmarked) [DAP],MIC,[3]; [10],1 µg/mL
same,MIC,[3]; Staphylococcus aureus NRS 2,0.25 µg/mL
same,MIC,[3]; Staphylococcus aureus NRS 3,1 µg/mL
same,MIC,[3]; Staphylococcus aureus NRS 4,0.5 µg/mL
same,MIC,[3]; Staphylococcus aureus NRS 13,2 µg/mL
same,MIC,[3]; Staphylococcus aureus NRS 18,0.5 µg/mL
same,MIC,[3]; Staphylococcus aureus NRS 22,2 µg/mL
same,MIC,[3]; [11],0.5 µg/mL
same,MIC,[3]; Staphylococcus aureus NRS 27,0.25 µg/mL
same,MIC,S. aureus ATCC 29213 [4],0.5 µg/mL
same,"MIC, QC range",S. aureus ATCC 29213 [5],(0.12-1) μg/mL
C[C@H]1COc2c(N3CCN(C)CC3)c(F)cc3c(=O)c(C(=O)O)cn1c23 [LVX],MIC,"Klebsiella pneumoniae; K. pneumoniae ATCC BAA-1705, QC organism",>8 µg/mL
same,MIC,"Klebsiella pneumoniae; Klebsiella pneumoniae ATCC BAA-1705, ESBL/KPC",>8 µg/mL
same,MIC,"Klebsiella pneumoniae; Klebsiella pneumoniae CDC 112, KPC",4 µg/mL
same,MIC,"Klebsiella pneumoniae; Klebsiella pneumoniae CDC 113, ESBL/KPC",4 µg/mL
same,MIC,"Klebsiella pneumoniae; Klebsiella pneumoniae CDC 115, ESBL/KPC",>8 µg/mL
same,MIC,"Klebsiella pneumoniae; Klebsiella pneumoniae CDC 120, ESBL/KPC",>8 µg/mL
same,MIC,"Klebsiella pneumoniae; Klebsiella pneumoniae CDC 126, ESBL/KPC",0.015 µg/mL
same,MIC,"Klebsiella pneumoniae; Klebsiella pneumoniae CDC 129, ESBL/KPC",>8 µg/mL
same,MIC,"Klebsiella pneumoniae; Klebsiella pneumoniae CDC 135, ESBL/VIM",>8 µg/mL
same,MIC,"Klebsiella pneumoniae; Klebsiella pneumoniae CDC 138, ESBL/NDM",>8 µg/mL
same,MIC,"Klebsiella pneumoniae; Klebsiella pneumoniae CDC 158, ESBL/NDM/OXA",4 µg/mL
same,MIC,"Klebsiella pneumoniae; Klebsiella pneumoniae MMX 9029, ESBL",0.12 µg/mL
same,"MIC, QC range",Pseudomonas aeruginosa [6],(0.5-4) μg/mL
same,"MIC, QC range",Escherichia coli [7],(0.008-0.06) μg/mL
same,MIC,[3]; [10],4 µg/mL
same,MIC,[3]; Staphylococcus aureus NRS 2,4 µg/mL
same,MIC,[3]; Staphylococcus aureus NRS 3,>8 µg/mL
same,MIC,[3]; Staphylococcus aureus NRS 4,4 µg/mL
same,MIC,[3]; Staphylococcus aureus NRS 13,0.12 µg/mL
same,MIC,[3]; Staphylococcus aureus NRS 18,4 µg/mL
same,MIC,[3]; Staphylococcus aureus NRS 22,8 µg/mL
same,MIC,[3]; [11],>8 µg/mL
same,MIC,[3]; Staphylococcus aureus NRS 27,8 µg/mL
same,MIC,S. aureus ATCC 29213 [4],0.06 µg/mL
same,MIC,"Pseudomonas aeruginosa [8]; P. aeruginosa ATCC 27853, QC organism",0.5 µg/mL
same,MIC,"Pseudomonas aeruginosa [8]; Pseudomonas aeruginosa CDC 230, VIM/OXA",8 µg/mL
same,MIC,"Pseudomonas aeruginosa [8]; Pseudomonas aeruginosa CDC 231, KPC/OXA",>8 µg/mL
same,MIC,"Pseudomonas aeruginosa [8]; Pseudomonas aeruginosa CDC 241, IMP/OXA",8 µg/mL
same,MIC,"Pseudomonas aeruginosa [8]; Pseudomonas aeruginosa CDC 246, NDM/OXA",>8 µg/mL
same,MIC,"Pseudomonas aeruginosa [8]; Pseudomonas aeruginosa CDC 250, NDM/OXA",>8 µg/mL
same,MIC,"Pseudomonas aeruginosa [8]; Pseudomonas aeruginosa CDC 356, KPC",0.12 µg/mL
same,MIC,"Pseudomonas aeruginosa [8]; Pseudomonas aeruginosa CDC 439, IMP",8 µg/mL
same,MIC,"Pseudomonas aeruginosa [8]; Pseudomonas aeruginosa CDC 444, VIM",8 µg/mL
same,MIC,"Pseudomonas aeruginosa [8]; Pseudomonas aeruginosa CDC 457, VIM",>8 µg/mL
same,MIC,"Pseudomonas aeruginosa [8]; Pseudomonas aeruginosa CDC 516, KPC/AmpC",0.25 µg/mL
same,MIC,"Pseudomonas aeruginosa [8]; Pseudomonas aeruginosa CDC 518, KPC/AmpC",>8 µg/mL
same,"MIC, QC range",S. aureus ATCC 29213 [5],(0.06-0.5) μg/mL
same,MIC,"Escherichia coli [9]; E. coli ATCC 25922, QC organism",≤0.008 µg/mL
same,MIC,"Escherichia coli [9]; E. coli ATCC 35218, QC organism",≤0.008 µg/mL
same,MIC,"Escherichia coli [9]; Escherichia coli ATCC 35218, ESBL",≤0.008 µg/mL
same,MIC,"Escherichia coli [9]; Escherichia coli ATCC BAA-2471, NDM",>8 µg/mL
same,MIC,"Escherichia coli [9]; Escherichia coli CDC 114, ESBL/KPC",4 µg/mL
same,MIC,"Escherichia coli [9]; Escherichia coli CDC 118, ESBL/NDM",8 µg/mL
same,MIC,"Escherichia coli [9]; Escherichia coli CDC 435, NDM",>8 µg/mL
same,MIC,"Escherichia coli [9]; Escherichia coli CDC 451, KPC",>8 µg/mL
same,MIC,"Escherichia coli [9]; Escherichia coli CDC 503, ESBL/NDM",>8 µg/mL
same,MIC,"Escherichia coli [9]; Escherichia coli MMX 5745, KPC",8 µg/mL
same,MIC,"Escherichia coli [9]; Escherichia coli MMX 5755, ESBL",8 µg/mL
same,MIC,"Escherichia coli [9]; Escherichia coli MMX 5756, ESBL",4 µg/mL
same,MIC,"Escherichia coli [9]; Escherichia coli MMX 5758, ESBL",8 µg/mL
same,MIC,"Acinetobacter baumannii; Acinetobacter baumannii CDC 273, ESBL/OXA",>8 µg/mL
same,MIC,"Acinetobacter baumannii; Acinetobacter baumannii CDC 274, ESBL/OXA",8 µg/mL
same,MIC,"Acinetobacter baumannii; Acinetobacter baumannii CDC 275, ESBL/OXA",4 µg/mL
same,MIC,"Acinetobacter baumannii; Acinetobacter baumannii CDC 277, ESBL/OXA",8 µg/mL
same,MIC,"Acinetobacter baumannii; Acinetobacter baumannii CDC 284, ESBL/OXA",8 µg/mL
same,MIC,"Acinetobacter baumannii; Acinetobacter baumannii CDC 307, OXA",8 µg/mL
same,MIC,"Acinetobacter baumannii; Acinetobacter baumannii CDC 308, ESBL/OXA",4 µg/mL
same,MIC,"Acinetobacter baumannii; Acinetobacter baumannii CDC 311, OXA",2 µg/mL
same,MIC,"Acinetobacter baumannii; Acinetobacter baumannii CDC 312, OXA",2 µg/mL
same,MIC,"Acinetobacter baumannii; Acinetobacter baumannii CDC 313, ESBL/OXA",2 µg/mL
same,MIC,"Acinetobacter baumannii; Acinetobacter baumannii NCTC 13304, OXA",1 µg/mL
